Data as given in PMC11677527, “Predicting Pharmacokinetics of Active Constituents in Spatholobi caulis by Using Physiologically Based Pharmacokinetic Models” (Pharmaceuticals, 2024).
Where two headings read alike, the source gives them in different places.

What was measured:
[1] = Observed pharmacokinetics in rats after oral SPC (previous study); assay type: in vivo, rat; settings: p.o. SPC
[2] = Verification pharmacokinetic experiment in rats, SPC 60 g crude drug/kg by gavage, UFLC-MS/MS, DAS 2.0; assay type: in vivo, rat
Summary of the method: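 Rats received SPC suspension at 60 g crude drug/kg by gavage. Orbital blood was taken at 0.083–12 h into heparin, and plasma 3′-methoxydaidzein, 8-O-methylretusin, daidzin and isolariciresinol were measured by UFLC-MS/MS (C18, MRM, carbamazepine internal standard). PK parameters were calculated from concentration-time curves.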

Caco-2 cell monolayer = system: Caco-2 cell monolayer; design: method as in PMID 36680806, PMID 26501241; settings: Caco-2 cell monolayer model; cited from earlier work
[3] = design: method as in PMID 34303214; settings: rats, p.o. SPC 30 g crude drug/kg; doses of 1-4: 0.062, 0.11, 0.71, 1.31 mg/kg; cited from earlier work
[4] = compartment model parameters, DAS 2.0, rats p.o. SPC 60 g crude drug/kg, Mean, 5 rats
[5] = statistical moment parameters, DAS 2.0, rats p.o. SPC 60 g crude drug/kg, Mean, 5 rats
[6] = statistical moment parameters, DAS 2.0, rats p.o. SPC 60 g crude drug/kg, Mean, 5 rats, in µg·h²/mL

## COc1cc(-c2coc3cc(O)ccc3c2=O)ccc1O [Constituent 1, 3′-methoxydadizein]
[1]
  time of slight secondary absorption peak: 6 h
[2]; [4]
  K10: 0.474 h⁻¹
  K12: 0.207 h⁻¹
  K21: 0.135 h⁻¹
  Ka: 4.239 h⁻¹
  Tlag: 0 h
  V1/F: 12.821 L/kg
  t1/2Ka: 0.185 h
  t1/2α: 1.009 h
[2]; rat, plasma, oral, time 0.083 h, rats p.o. SPC 60 g crude drug/kg, doses of 1-4: 0.124, 0.22, 1.4, 2.62 mg/kg, 5 rats
  concentration at 0.083 h: 2.98 ng/mL
[2]; rat, plasma, oral, time 0.25 h, rats p.o. SPC 60 g crude drug/kg, doses of 1-4: 0.124, 0.22, 1.4, 2.62 mg/kg, 5 rats
  concentration at 0.25 h: 5.52 ng/mL
[2]; rat, plasma, oral, time 0.5 h, rats p.o. SPC 60 g crude drug/kg, doses of 1-4: 0.124, 0.22, 1.4, 2.62 mg/kg, 5 rats
  concentration at 0.5 h: 7.09 ng/mL
[2]; rat, plasma, oral, time 0.75 h, rats p.o. SPC 60 g crude drug/kg, doses of 1-4: 0.124, 0.22, 1.4, 2.62 mg/kg, 5 rats
  concentration at 0.75 h: 6.16 ng/mL
[2]; rat, plasma, oral, time 1 h, rats p.o. SPC 60 g crude drug/kg, doses of 1-4: 0.124, 0.22, 1.4, 2.62 mg/kg, 5 rats
  concentration at 1 h: 5.77 ng/mL
[2]; rat, plasma, oral, time 1.5 h, rats p.o. SPC 60 g crude drug/kg, doses of 1-4: 0.124, 0.22, 1.4, 2.62 mg/kg, 5 rats
  concentration at 1.5 h: 5.11 ng/mL
[2]; rat, plasma, oral, time 2 h, rats p.o. SPC 60 g crude drug/kg, doses of 1-4: 0.124, 0.22, 1.4, 2.62 mg/kg, 5 rats
  concentration at 2 h: 2.89 ng/mL
[2]; rat, plasma, oral, time 3 h, rats p.o. SPC 60 g crude drug/kg, doses of 1-4: 0.124, 0.22, 1.4, 2.62 mg/kg, 5 rats
  concentration at 3 h: 1.75 ng/mL
[2]; rat, plasma, oral, time 4 h, rats p.o. SPC 60 g crude drug/kg, doses of 1-4: 0.124, 0.22, 1.4, 2.62 mg/kg, 5 rats
  concentration at 4 h: 1.46 ng/mL
[2]; rat, plasma, oral, time 6 h, rats p.o. SPC 60 g crude drug/kg, doses of 1-4: 0.124, 0.22, 1.4, 2.62 mg/kg, 5 rats
  concentration at 6 h: 0.553 ng/mL
[2]; rat, plasma, oral, time 8 h, rats p.o. SPC 60 g crude drug/kg, doses of 1-4: 0.124, 0.22, 1.4, 2.62 mg/kg, 5 rats
  concentration at 8 h: 0.582 ng/mL
[2]; rat, plasma, oral, time 12 h, rats p.o. SPC 60 g crude drug/kg, doses of 1-4: 0.124, 0.22, 1.4, 2.62 mg/kg, 5 rats
  concentration at 12 h: 0.197 ng/mL
[2]; rat, plasma, po, 0.124 mg/kg, compartment model parameters, DAS 2.0, rats p.o. SPC 60 g crude drug/kg, Mean, 5 rats, read-out: AUC(0-t)
  AUC(0-t): 19.1 ng·h/mL
[2]; rat, plasma, po, 0.124 mg/kg, compartment model parameters, DAS 2.0, rats p.o. SPC 60 g crude drug/kg, Mean, 5 rats, read-out: AUC(0-∞)
  AUC(0-inf): 20.5 ng·h/mL
[2]; rat, plasma, po, 0.124 mg/kg, compartment model parameters, DAS 2.0, rats p.o. SPC 60 g crude drug/kg, Mean, 5 rats, read-out: CL/F (converted)
  CL/F: 101 mL/min/kg
[2]; rat, plasma, po, 0.124 mg/kg, compartment model parameters, DAS 2.0, rats p.o. SPC 60 g crude drug/kg, Mean, 5 rats, read-out: t1/2β (converted)
  half-life: 14.4 h
[2]; rat, plasma, po, 0.124 mg/kg, statistical moment parameters, DAS 2.0, rats p.o. SPC 60 g crude drug/kg, Mean, 5 rats, read-out: AUC(0-t)
  AUC(0-t): 19.1 ng·h/mL
[2]; rat, plasma, po, 0.124 mg/kg, statistical moment parameters, DAS 2.0, rats p.o. SPC 60 g crude drug/kg, Mean, 5 rats, read-out: AUC(0-∞)
  AUC(0-inf): 20 ng·h/mL
[2]; rat, plasma, po, 0.124 mg/kg, statistical moment parameters, DAS 2.0, rats p.o. SPC 60 g crude drug/kg, Mean, 5 rats, read-out: CLz/F (converted)
  CL/F: 103 mL/min/kg
[2]; rat, plasma, po, 0.124 mg/kg, statistical moment parameters, DAS 2.0, rats p.o. SPC 60 g crude drug/kg, Mean, 5 rats, read-out: Cmax
  Cmax: 7.18 ng/mL
[2]; rat, plasma, po, 0.124 mg/kg, statistical moment parameters, DAS 2.0, rats p.o. SPC 60 g crude drug/kg, Mean, 5 rats, read-out: MRT(0-t)
  MRT last: 2.77 h
[2]; rat, plasma, po, 0.124 mg/kg, statistical moment parameters, DAS 2.0, rats p.o. SPC 60 g crude drug/kg, Mean, 5 rats, read-out: MRT(0-∞)
  MRT inf: 3.44 h
[2]; rat, plasma, po, 0.124 mg/kg, statistical moment parameters, DAS 2.0, rats p.o. SPC 60 g crude drug/kg, Mean, 5 rats, read-out: Tmax
  Tmax: 0.55 h
[2]; rat, plasma, po, 0.124 mg/kg, statistical moment parameters, DAS 2.0, rats p.o. SPC 60 g crude drug/kg, Mean, 5 rats, read-out: Vz/F
  Vd/F: 25.9 L/kg
[2]; rat, plasma, po, 0.124 mg/kg, statistical moment parameters, DAS 2.0, rats p.o. SPC 60 g crude drug/kg, Mean, 5 rats, read-out: t1/2z (converted)
  half-life: 2.9 h
[2]; rat, plasma, po, 2.62 mg/kg, rats, p.o. SPC 60 g crude drug/kg, doses of 1-4: 0.124, 0.22, 1.42, 2.62 mg/kg, n = 5, read-out: AUC0→t Val.
  AUC(0-t): 19.1 ng·h/mL
[2]; rat, plasma, po, 2.62 mg/kg, rats, p.o. SPC 60 g crude drug/kg, doses of 1-4: 0.124, 0.22, 1.42, 2.62 mg/kg, n = 5, read-out: AUC0→∞ Val.
  AUC(0-inf): 20 ng·h/mL
[2]; rat, plasma, po, 2.62 mg/kg, rats, p.o. SPC 60 g crude drug/kg, doses of 1-4: 0.124, 0.22, 1.42, 2.62 mg/kg, n = 5, read-out: Cmax Val.
  Cmax: 7.2 ng/mL
[2]; rat, plasma, po, rats, p.o. SPC 60 g crude drug/kg, doses of 1-4: 0.124, 0.22, 1.42, 2.62 mg/kg, n = 5, read-out: Tmax Val.
  Tmax: 0.55 h
[2]; [5]
  Cz: 0.202 µg/L
  VRT(0-t): 7.148 h^2
  VRT(0-∞): 16.239 h^2
  elimination rate constant: 0.247 h⁻¹
[2]; [6]
  AUMC(0-t): 52.953
  AUMC(0-∞): 68.893
Caco-2 cell monolayer
  Papp: 2.2 ×10⁻⁶ cm/s
[3]
  AUC0→t Obs.: 8.4 ng·h/mL
  AUC0→∞ Obs.: 9 ng·h/mL
  Cmax Obs.: 3.9 ng/mL
  Tmax Obs.: 0.42 h
